Assay results taken from patent US6846818B2, “Selective inhibitors of cyclooxygenase-2” (Pfizer Inc., priority 2002, dated 2005).

Tests used:
[1] = target: T1, COX-2 (Homo sapiens, UniProt P35354); assay: Cell-based COX-2 inhibition (canine, feline or human assays); settings: from IC50 COX-1 vs COX-2
T1 sequence (P35354 18-604): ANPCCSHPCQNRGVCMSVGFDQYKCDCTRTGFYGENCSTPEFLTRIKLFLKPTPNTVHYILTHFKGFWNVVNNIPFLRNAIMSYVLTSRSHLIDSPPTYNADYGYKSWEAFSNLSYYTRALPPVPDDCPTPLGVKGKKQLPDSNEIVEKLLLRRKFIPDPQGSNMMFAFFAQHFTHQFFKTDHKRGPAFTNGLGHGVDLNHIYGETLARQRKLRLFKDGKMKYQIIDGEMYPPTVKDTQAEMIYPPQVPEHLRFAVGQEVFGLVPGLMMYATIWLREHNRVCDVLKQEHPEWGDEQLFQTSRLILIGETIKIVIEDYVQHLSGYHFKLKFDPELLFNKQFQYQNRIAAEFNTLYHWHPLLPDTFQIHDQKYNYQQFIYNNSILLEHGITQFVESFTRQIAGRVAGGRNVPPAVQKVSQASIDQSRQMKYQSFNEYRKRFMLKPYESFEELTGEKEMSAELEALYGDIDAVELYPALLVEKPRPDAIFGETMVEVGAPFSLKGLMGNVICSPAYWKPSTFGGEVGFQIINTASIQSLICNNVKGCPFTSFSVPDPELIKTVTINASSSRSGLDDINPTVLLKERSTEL
Procedure: The human cell based COX-2 assay can be carried out as previously described (Moore et al., Inflam. Res., 45, 54, 1996). Confluent human umbilical vein endothelial cells (HUVECs, Morinaga) in a 96-well flat bottom plate can be washed with 80 ml of RPMI1640 containing 2% FBS and incubated with hIL-1β (final concentration 300 U/ml, R & D Systems) at 37° C. for 24 hours. After washing, the activated HUVECs can be incubateed with test compound (final concentration; 0.1 nM-1 μM) dissolved in DMSO (final concentration; less than 0.01%) at 37° C. for 20 minutes and stimulated with A23187 (final concentration […]) in Hanks buffer containing 0.2% BSA, 20 mM Hepes at 37° C. for 15 minutes. 6-Keto-PGF1α, stable metabolite of PGI2, in the supernatant can be quantitated by using a radioimmunoassay method (antibody; Preseptive Diagnostics, SPA; Amersham).
A canine histocytoma (macrophage-like) cell line from the American Type Culture Collection designated as DH82, can be used in setting up the protocol for evaluating the COX-2 inhibition activity of various test drug compounds. […] The EIA can be performed for prostaglandin E2 (PGE2) and the pg/mL concentration of PGE2 can be calculated from the standard line included on each plate. […] The results are averaged and a single COX-1:COX-2 ratio is calculated. […]

[2] = target: T2, COX-1 (Homo sapiens, UniProt P23219); assay: Cell-based COX-1 inhibition; settings: assay/species not specified
T2 construct: endogenous in cells; host or cells: one of: human washed platelets, canine washed platelets, or feline/canine/human whole blood
T2 sequence (P23219 24-599): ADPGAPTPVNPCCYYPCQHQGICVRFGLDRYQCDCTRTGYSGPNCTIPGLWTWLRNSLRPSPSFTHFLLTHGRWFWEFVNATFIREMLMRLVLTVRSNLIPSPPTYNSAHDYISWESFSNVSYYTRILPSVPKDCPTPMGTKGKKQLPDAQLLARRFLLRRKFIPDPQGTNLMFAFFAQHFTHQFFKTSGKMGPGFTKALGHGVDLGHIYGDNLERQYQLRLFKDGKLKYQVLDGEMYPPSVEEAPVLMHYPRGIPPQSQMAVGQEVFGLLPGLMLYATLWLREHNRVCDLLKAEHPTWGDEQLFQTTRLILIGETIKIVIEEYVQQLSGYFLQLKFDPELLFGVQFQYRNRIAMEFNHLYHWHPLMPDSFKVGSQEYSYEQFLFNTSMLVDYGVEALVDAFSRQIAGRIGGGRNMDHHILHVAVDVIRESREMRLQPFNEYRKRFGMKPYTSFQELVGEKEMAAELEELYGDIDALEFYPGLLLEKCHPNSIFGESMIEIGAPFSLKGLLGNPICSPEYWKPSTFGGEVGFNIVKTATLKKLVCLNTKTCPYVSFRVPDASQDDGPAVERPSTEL
Procedure: Human peripheral blood obtained from healthy volunteers can be diluted to 1/10 volume with 3.8% sodium citrate solution. The platelet-rich plasma immediately obtained can be washed with 0.14 M sodium chloride containing 12 mM Tris-HCl (pH 7.4) and 1.2 mM EDTA. Platelets can then be washed with platelet buffer (Hanks buffer (Ca free) containing 0.2% BSA and 20 mM Hepes). Finally, the human washed platelets (HWP) can be suspended in platelet buffer at the concentration of 2.85×10^8 cells/ml and stored at room temperature until use. The HWP suspension (70 μl aliquots, final 2.0×10^7 cells/ml) can be placed in a 96-well U bottom plate and 10 μl aliquots of 12.6 mM calcium chloride added. […] The reaction can be stopped by addition of EDTA (final 7.7 mM) and TxB2 in the supernatant quantitated by using a radioimmunoassay kit (Amersham) according to the manufacturer's procedure.
Test drug compounds can be solubilized and diluted the day before the assay can be to be conducted with 0.1 mL of DMSO/9.9 mL of Hank's balanced salts solution (HBSS) and stored overnight at 4° C. […] The pg/mL of TXB2 can be calculated from the standard line included on each plate, from which it can be possible to calculate the percent inhibition of COX-1 and the IC50 values for the test drug compounds. […]
COX-2 selectivity can be determined by ratio in terms of IC50 value of COX-1 inhibition to COX-2 inhibition. […]

selectivity for COX-2 (COX-1/COX-2 IC50) [1]: no selectivity for COX-2
IC50 [2]: > 150 µM
Compound: Cc1cc(C)cc(NC(=O)N2C(=O)C(C(=O)c3cnccn3)c3cc(C)c(F)cc32)c1 (centres unmarked) [6-Fluoro-5-methyl-2-oxo-3-(pyrazine-2-carbonyl)-2,3-dihydro-indole-1-carboxylic acid (3,5-dimethyl-phenyl)-amide]
